Experimental data from patent US12458818B2, “Anti-trophoblast cell surface antigen 2 (TROP2) antibodies and antibody drug conjugates comprising same” (CSPC MEGALITH BIOPHARMACEUTICAL CO., LTD., priority 2019, dated 2025).

Tests used:
Type in all cases: cell-based
[1] = tested on: BxPC-3; experiment: In vitro cytotoxicity assay, BxPC-3; conditions: BxPC-3 human pancreatic adenocarcinoma cell line
Description: (§1) DP002-HC1LC1-ADC is an antibody-drug conjugate comprising anti-TROP antibody DP002-HC1LC1, which comprises HCl (SEQ ID NO: 52) and LC 1 (SEQ ID NO: 58), conjugated to monomethyl auristatin E (MMAE) at a drug-antibody ratio (DAR) of 2. A DP002-HC1LC1-ADC was prepared using a conjugation method described in WO 2015/191883. A series of in vitro cytotoxicity assays were performed to assess the ability of DP002-HC1LC1-ADC to inhibit the growth of the following TROP2 expressing cancer cell lines: HCC1954 (a human breast carcinoma cell line), BxPC-3 (a human pancreatic adenocarcinoma cell line), and NCI-N87 (a human gastric carcinoma cell line). Experiments using staurospirone, a positive apoptosis control, and anti-TROP2 antibody DP002-HC4LC5, which comprises HC4 (SEQ ID NO: 55) and LC5 (SEQ ID NO: 62), were performed in parallel.

[2] = tested on: NCI-N87; experiment: In vitro cytotoxicity assay, NCI-N87; conditions: NCI-N87 human gastric carcinoma cell line
Description: as §1

[3] = tested on: MDA-MB-468; experiment: In vitro cytotoxicity assay, MDA-MB-468; conditions: MDA-MB-468 TROP2+ human breast adenocarcinoma cell line
Description: (§2) Additional in vitro cytotoxicity assays were performed to test the ability of DP002-HC1LC1-ADC to inhibit the growth of MDA-MB-468 (a TROP2^+ human breast adenocarcinoma cell line) and HCC38 (a TROP2^+ human mammary ductal carcinoma cell line).

[4] = tested on: HCC38; experiment: In vitro cytotoxicity assay, HCC38; conditions: HCC38 TROP2+ human mammary ductal carcinoma cell line
Description: as §2

[5] = tested on: HCC1954; experiment: In vitro cytotoxicity assay, HCC1954; conditions: HCC1954 human breast carcinoma cell line
Description: as §1

Q: Which results are given for `CN[C@@H]1C[C@H]2O[C@@](C)([C@@H]1OC)n1c3ccccc3c3c4c(c5c6ccccc6n2c5c31)C(=O)NC4` [Staurosprione, staurospirone]?
A: IC50 [1]: 5.37 nM; Max % inhibition [1]: 98.02%; Max % inhibition ([1]; listed as staurospirone): greater than 93%; IC50 [2]: 9.31 nM; Max % inhibition [2]: 93.44%; Max % inhibition ([2]; listed as staurospirone): greater than 93%; IC50 [3]: 14.7 nM; Max % inhibition [3]: 92.38%; IC50 [4]: 4.26 nM; Max % inhibition [4]: 99.44%; IC50 [5]: 21.7 nM; Max % inhibition [5]: 95.12%; Max % inhibition ([5]; listed as staurospirone): greater than 93%
